Measured values taken from US4440771A, “2-Acetyl quinoline thiosemicarbazones useful in treatment of gonorrhea, malaria or bacterial infections” (The United States of America as represented by the …, priority 1982, dated 1984).
Values after ≈ are worked out from the molar mass of the structure shown. Like-named read-outs stand apart in the source and are kept apart here.

Tests used:
[1] = test system: Neisseria meningitidis isolates; experiment: Minimum inhibitory concentration, macro broth dilution, Neisseria meningitidis isolates (Test 2); assay type: cell-based; settings: 24 h
Experimental: Compounds were tested against five isolates of Neisseria meningitidis. […] The test procedure used was the macro broth dilutuon method in duplicate outlined by J. C. Sherris on pages 414-415. The test compounds and controls were prepared as in Test 1. Ampicillin and penicillin standards were initially diluted as described by J. C. Sherris on pages 411-412 followed by dilution with Mueller-Hinton broth.

[2] = test system: Staphylococcus aureus isolates; experiment: Minimum inhibitory concentration, macro broth dilution, Staphylococcus aureus isolates (Test 1); assay type: cell-based; settings: for MIC: Staphylococcus aureus, 24 h, read-out: Minimum Inhibitory Concentration
Experimental: Compounds were tested against five isolates of Staphylococcus aureus. The bacteria used were isolated from patients at the Walter Reed Army Medical Center, Washington, D.C. […] Each compound was dissolved in Dimethyl Sulfoxide (DMSO) (12.8 mg/ml) and then diluted with Mueller-Hinton broth to obtain the desired dilutions. Tubes containing the hightest quantities of DMSO with no compound present were run as controls.

[3] = test system: Mycobacterium smegmatis strains; experiment: Minimum inhibitory concentration, Mycobacterium smegmatis strains (Test 4); assay type: cell-based; settings: Mycolicibacterium smegmatis
Experimental: Compounds were tested against three strains of Mycobacterium smegmatis. The test procedure used was as mentioned by N. E. Morrison [Int. J. of Leprosy 39:34-43 (1971)]. The strain numbers refer to Mycobacterium smegmatis ATCC 607 (I), a DDS-resistant daughter strain (II), and a Rifampin-resistant daughter strain (III), respectively.

[4] = test system: Neisseria gonorrhoeae isolates; experiment: Minimum inhibitory concentration, agar dilution, Neisseria gonorrhoeae isolates (Test 3); settings: 24 h, read-out: Minimum Inhibitory Concentration
Experimental: Compounds were tested against 35 Neisseria gonorrhoeae isolates. The bacteria used were provided by the Department of Bacterial Diseases of the Walter Reed Amry Institute of Research. The test procedure used was the agar dilution method in duplicate as outlined by J. S. Sherris on pages 411-412. GC Medium (Difco) with a 2% defined supplement added as described by D. S. Kellogg et al [J. Bact. […] The compounds were dissolved in DMSO (1.0 mg/ml), diluted with GC broth (GC Medium without agar) to the appropriate concentration, and added to the GC Medium at 55°-56° C. The latter was then poured and allowed to solidify. A penicillin standard was also prepared with initial dilutions as described by J. C. Sherris followed by dilutions with GC broth and addition to the GC Medium at 55°-56° C. The inoculum was 1:200 CG broth dilution of a suspension of colony isolates after the suspension was adjusted visually to the turbidity standard described by J. M. Matsen and A. L. Barr on page 422 in "Manual of Clinical Microbiology," 2nd Ed., E. Lennette, E. H. Spaulding, and J. P. Truant, Ed. […] The plates were inoculated with a replicator and incubated at 37° C. under 5-10% carbon dioxide.

[5] = test system: Plasmodium berghei KBG 173; experiment: In vivo antimalarial activity against Plasmodium berghei in mice (Test 5); design: key: C: Mice surviving 60 days are considered cured; active: Activity is defined as a 100% increase in the mean survival time of the treated mice compared to the control group; settings: C (n/5) = cured of five
Experimental: Compounds were tested against Plasmodium berghei KBG 173 malaria in mice following the procedure described by T. S. Osdene, P. B. Russell, and L. Rane [J. Med. Chem. 10:431-434 (1967)]. Five mice were tested at each dosage level. Mice surviving 60 days are considered cured. Toxicity is defined as a decrease in the mean survival time of the treated mice as compared to the control group. Activity is defined as a 100% increase in the mean survival time of the treated mice compared to the control group.

[6] = Neisseria meningitidis isolate 7957, read-out: Minimum Inhibitory Concentration
[7] = Neisseria meningitidis isolate 7990, read-out: Minimum Inhibitory Concentration
[8] = Neisseria meningitidis isolate 8005, read-out: Minimum Inhibitory Concentration
[9] = Neisseria meningitidis isolate 8006, read-out: Minimum Inhibitory Concentration
[10] = Neisseria meningitidis isolate 8011, read-out: Minimum Inhibitory Concentration
[11] = Staphylococcus aureus isolate V, 24 hours
[12] = Staphylococcus aureus isolate II, 24 hours
[13] = Staphylococcus aureus isolate III, 24 hours
[14] = Staphylococcus aureus isolate IV, 24 hours
[15] = 24 h, DDS-resistant daughter strain (II)
[16] = 24 h, Rifampin-resistant daughter strain (III)
[17] = ATCC607, 24 h, Mycobacterium smegmatis ATCC 607 (I)
[18] = read-out: Minimum Inhibitory Concentration, Neisseria meningitidis isolate 7957
[19] = read-out: Minimum Inhibitory Concentration, Neisseria meningitidis isolate 7990
[20] = read-out: Minimum Inhibitory Concentration, Neisseria meningitidis isolate 8006
[21] = read-out: Minimum Inhibitory Concentration, Neisseria meningitidis isolate 8011

| SMILES | MIC [1, 6] [mg/L] | MIC [1, 7] [mg/L] | MIC [1, 8] [mg/L] | MIC [1, 9] [mg/L] | MIC [1, 10] [mg/L] | Minimum Inhibitory Concentration [2, 11] [µg/mL] | MIC [2, 12] [mg/L] | MIC [2, 13] [mg/L] | MIC [2, 14] [mg/L] | MIC [3, 15] [mg/L] | MIC [3, 16] [mg/L] | MIC [3, 17] [mg/L] | MIC [4] [mg/L] | further results |
| --- | --- | --- | --- | --- | --- | --- | --- | --- | --- | --- | --- | --- | --- | --- |
| CC1(C)S[C@@H]2[C@H](NC(=O)[C@H](N)c3ccccc3)C(=O)N2[C@H]1C(=O)O [Ampicillin, reference compound] | 0.008 (≈ 0.0229 µM) | 0.008 (≈ 0.0229 µM) | 0.008 (≈ 0.0229 µM) | 0.016 (≈ 0.0458 µM) | 0.016 (≈ 0.0458 µM) |  |  |  |  |  |  |  |  |  |
| CC(=NNC(=S)N1CCCCCC1)c1ccc2ccccc2n1 [Compound 3F, 1-Azacycloheptane-1-thiocarboxylic Acid 2-[1-(2-quinolyl)ethylidene]-hydrazide] | < 0.062 | 0.125 (≈ 0.383 µM) | 0.25 (≈ 0.766 µM) | 0.25 (≈ 0.766 µM) | 0.25 (≈ 0.766 µM) | 16 | 16 (≈ 49 µM) | 16 (≈ 49 µM) | 16 (≈ 49 µM) | 15 (≈ 45.9 µM) | 10 (≈ 30.6 µM) | 2.5 (≈ 7.66 µM) | 0.25 to 0.5 (≈ 0.766 to 1.53 µM) |  |
| CC(=NNC(=S)N1CC2CCC(CC2)C1)c1ccc2ccccc2n1 [Compound 3G, 3-Azabicyclo[3.2.2]none-3-thiocarboxylic acid 2-[1-(2-quinolyl)ethylidene]hydrazide] |  |  |  |  |  | 16 |  |  |  | 15 (≈ 42.6 µM) | 10 (≈ 28.4 µM) | 4 (≈ 11.3 µM) | 0.5 to 1 (≈ 1.42 to 2.84 µM) | Minimum Inhibitory Concentration [2, 12]: 16 µg/mL; Minimum Inhibitory Concentration [2, 13]: 16 µg/mL; Minimum Inhibitory Concentration [2, 14]: 16 µg/mL; MIC [2]: 16 mg/L (≈ 45.4 µM); In vivo Antimalarial Activity ([5]; 160 mg/kg): active; MIC [1, 18]: 0.125 mg/L (≈ 0.355 µM); MIC [1, 19]: 1 mg/L (≈ 2.84 µM); MIC ([1]; read-out: Minimum Inhibitory Concentration, Neisseria meningitidis isolate 8005): 1 mg/L (≈ 2.84 µM); MIC [1, 20]: 0.5 mg/L (≈ 1.42 µM); MIC [1, 21]: 0.5 mg/L (≈ 1.42 µM) |
| CC(=NNC(=S)N1CCN(c2ccccn2)CC1)c1ccc2ccccc2n1 [Compound 3H] | > 1 | > 1 | > 1 | > 1 | > 1 | 16 | 16 (≈ 41 µM) | 16 (≈ 41 µM) | 16 (≈ 41 µM) | 10 (≈ 25.6 µM) | 5 (≈ 12.8 µM) | 2.5 (≈ 6.4 µM) | 0.125 to 0.5 (≈ 0.32 to 1.28 µM) |  |
| CC(=NNC(=S)N1CCCC1)c1ccc2ccccc2n1 [Compound 3I, Pyrrolidine-1-thiocarboxylic acid 2-[1-(2-quinolyl)ethylidene]hydrazide] | 0.062 (≈ 0.208 µM) | 0.125 (≈ 0.419 µM) | 0.125 (≈ 0.419 µM) | 0.125 (≈ 0.419 µM) | 0.125 (≈ 0.419 µM) |  |  |  | ≤ 0.25 | 3 (≈ 10.1 µM) | 1.5 (≈ 5.03 µM) | 0.6 (≈ 2.01 µM) | 0.125 to 0.25 (≈ 0.419 to 0.838 µM) | MIC ([2]; Staphylococcus aureus isolate I, 24 hours): ≤ 0.25 mg/L; MIC [2, 11]: ≤ 0.25 mg/L |
| CCCNC(=S)NN=C(C)c1ccc2ccccc2n1 [Compound 3J, I-Propylaminothiocarboxylic acid 2-[1-(2-quinolyl)ethylidene]hydrazide] |  |  |  |  |  |  |  |  |  | 4 (≈ 14 µM) | 2 (≈ 6.98 µM) | 1 (≈ 3.49 µM) |  |  |
| CC(=NNC(=S)N(CC(C)C)CC(C)C)c1ccc2ccccc2n1 [Compound 3K, Diisobutylaminothiocarboxylic acid 2-[1-(2-quinolyl)ethylidene]hydrazide] | 0.125 (≈ 0.351 µM) | 0.5 (≈ 1.4 µM) | 0.5 (≈ 1.4 µM) | 1 (≈ 2.8 µM) | 0.5 (≈ 1.4 µM) | 16 | 16 (≈ 44.9 µM) | 16 (≈ 44.9 µM) | 16 (≈ 44.9 µM) | > 50 | > 50 | 10 (≈ 28 µM) | > 1 | In vivo Antimalarial Activity ([5]; 320 mg/kg): active; In vivo Antimalarial Activity ([5]; 640 mg/kg): active |
| Nc1ccc(S(=O)(=O)c2ccc(N)cc2)cc1 [DDS, reference compound] |  |  |  |  |  |  |  |  |  | 400 (≈ 1610 µM) |  | 2 (≈ 8.05 µM) |  |  |
| CC1(C)S[C@@H]2[C@H](NC(=O)Cc3ccccc3)C(=O)N2[C@H]1C(=O)O [Penicillin, reference compound] |  |  |  |  |  |  |  |  |  |  |  |  | 0.062 to 16 (≈ 0.185 to 47.8 µM) | MIC [1, 18]: 0.031 mg/L (≈ 0.0927 µM); MIC [1, 19]: 0.031 mg/L (≈ 0.0927 µM); MIC [1, 20]: 0.031 mg/L (≈ 0.0927 µM); MIC [1, 21]: 0.031 mg/L (≈ 0.0927 µM) |
| CO[C@H]1/C=C/O[C@@]2(C)Oc3c(C)c(O)c4c(O)c(c(/C=N/N5CCN(C)CC5)c(O)c4c3C2=O)NC(=O)/C(C)=C\C=C\[C@H](C)[C@H](O)[C@@H](C)[C@@H](O)[C@@H](C)[C@H](OC(C)=O)[C@@H]1C [Rifampin, reference compound] |  |  |  |  |  |  |  |  |  |  | 250 (≈ 304 µM) | 1 (≈ 1.22 µM) |  |  |
